Test results: US10669258B2, “3-sulfonyl-5-aminopyridine-2,4-diol APJ agonists” (BRISTOL-MYERS SQUIBB COMPANY, priority 2016, dated 2020)
Like-named read-outs stand apart in the source and are kept apart here.

Target: T1, human APJ receptor (Homo sapiens, UniProt P35414)
T1 construct: expressed in transfected cells; host or cells: HEK293
T1 sequence (P35414 1-380): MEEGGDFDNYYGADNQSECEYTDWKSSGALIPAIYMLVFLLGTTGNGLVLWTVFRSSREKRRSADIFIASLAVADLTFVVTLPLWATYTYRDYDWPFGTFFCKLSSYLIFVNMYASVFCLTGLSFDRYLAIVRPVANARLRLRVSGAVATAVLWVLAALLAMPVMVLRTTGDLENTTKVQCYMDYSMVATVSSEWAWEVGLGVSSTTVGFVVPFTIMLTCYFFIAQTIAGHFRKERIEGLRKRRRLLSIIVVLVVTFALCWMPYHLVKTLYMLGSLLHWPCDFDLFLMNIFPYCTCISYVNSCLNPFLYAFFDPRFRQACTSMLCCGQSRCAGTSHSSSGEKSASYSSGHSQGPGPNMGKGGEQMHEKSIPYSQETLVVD
Assay: Intracellular cAMP accumulation assay (APJ hcAMP, HTRF)
Assay type: cell-based
Outline: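 HEK293 cells stably expressing the receptor (5,000/well) treated with compound plus […] and 2 μM forskolin for 30 min at room temperature; cAMP by HTRF against a cAMP standard curve. EC50 from variable-slope sigmoidal fit; Ymax as % of (Pyr1)apelin-13 inhibition.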

[1] = HEK293 cells stably expressing human APJ receptor; inhibition of forskolin-mediated cAMP production; Table 1; read-out: hAPJ cAMP EC50 Potency range

Row | SMILES | EC50 [1] [nM] | EC50 (read-out: hAPJ cAMP EC50 Potency range; HEK293 cells stably expressing human APJ receptor; inhibition of forskolin-mediated cAMP production; Table 1) [nM]
1 | CCN(c1ccccc1)c1c(-c2cccc(C)c2)nc(O)c(S(=O)(=O)c2ccc(-c3ccncc3C)cc2)c1O [Example 120, 5-(ethyl(phenyl)amino)-3-((4-(3-methylpyridin-4-yl)phenyl)sulfonyl)-6-(m-tolyl)pyridine-2,4-diol] | 0.01 to 10 | 
2 | CCN(c1ccccc1)c1c(-c2cccc(C)c2)nc(O)c(S(=O)(=O)c2ccc(-c3ccnc(F)c3C)cc2)c1O [Example 122, 5-(ethyl(phenyl)amino)-3-((4-(2-fluoro-3-methylpyridin-4-yl)phenyl)sulfonyl)-6-(m-tolyl)pyridine-2,4-diol] | 0.01 to 10 | 
3 | CCCCc1nc(O)c(S(=O)(=O)c2ccc(-c3cccnc3C)cc2)c(O)c1N1CCCOc2ccccc21 [Example 123, 6-butyl-5-(3,4-dihydrobenzo[b][1,4]oxazepin-5(2H)-yl)-3-((4-(2-methylpyridin-3-yl)phenyl)sulfonyl)pyridine-2,4-diol] | 10 to 100 | 
4 | CCCCc1nc(O)c(S(=O)(=O)c2ccc(-c3cccnc3C)cc2)c(O)c1N(C)c1ccccc1F [Example 124, 6-butyl-5-((2-fluorophenyl)(methyl)amino)-3-((4-(2-methylpyridin-3-yl)phenyl)sulfonyl)pyridine-2,4-diol] | 0.01 to 10 | 
5 | CCCCc1nc(O)c(S(=O)(=O)c2ccc(-c3ccnc(F)c3C)cc2)c(O)c1N(C)c1ccccc1F [Example 125, 6-butyl-3-((4-(2-fluoro-3-methylpyridin-4-yl)phenyl)sulfonyl)-5-((2-fluorophenyl)(methyl)amino)pyridine-2,4-diol] | 0.01 to 10 | 
6 | CCCCc1nc(O)c(S(=O)(=O)c2ccc(-c3ccc(F)nc3C)cc2)c(O)c1N1CCCCC1c1ccccc1 (stereo not shown) [Example 126, 6-butyl-3-((4-(6-fluoro-2-methylpyridin-3-yl)phenyl)sulfonyl)-5-(2-phenylpiperidin-1-yl)pyridine-2,4-diol] | 10 to 100 | 
7 | CCCCc1nc(O)c(S(=O)(=O)c2ccc(-c3ccnc(F)c3C)cc2)c(O)c1N1CCCOc2ccccc21 [Example 127, 6-butyl-5-(3,4-dihydrobenzo[b][1,4]oxazepin-5(2H)-yl)-3-((4-(2-fluoro-3-methylpyridin-4-yl)phenyl)sulfonyl)pyridine-2,4-diol] | 0.01 to 10 | 
8 | CCCCc1nc(O)c(S(=O)(=O)c2ccc(-c3ccnc(F)c3C)cc2)c(O)c1N1CCCCC1c1ccccc1 (stereo not shown) [Example 128, 6-butyl-3-((4-(2-fluoro-3-methylpyridin-4-yl)phenyl)sulfonyl)-5-(2-phenylpiperidin-1-yl)pyridine-2,4-diol] | 10 to 100 | 
9 | CCCCc1nc(O)c(S(=O)(=O)c2ccc(-c3ccncc3C)cc2)c(O)c1N1CCCOc2ccccc21 [Example 129, 6-butyl-5-(3,4-dihydrobenzo[b][1,4]oxazepin-5(2H)-yl)-3-((4-(3-methylpyridin-4-yl)phenyl)sulfonyl)pyridine-2,4-diol] | 0.01 to 10 | 
10 | CCN(c1ccccc1)c1c(-c2cccc(C)c2)nc(O)c(S(=O)(=O)c2ccc(Br)cc2)c1O [Example 131, 3-((4-bromophenyl)sulfonyl)-5-(ethyl(phenyl)amino)-6-(m-tolyl)pyridine-2,4-diol] | 10 to 100 | 
11 | CCN(c1ccccc1)c1c(-c2cccc(C)c2)nc(O)c(C(=O)N2CCC(c3ncc(F)cc3F)C2)c1O (stereo not shown) [Example 132, (3-(3,5-difluoropyridin-2-yl)pyrrolidin-1-yl)(5-(ethyl(phenyl)amino)-2,4-dihydroxy-6-(m-tolyl)pyridin-3-yl)methanone] |  | 0.01 to 10
12 | CCCCc1nc(O)c(S(=O)(=O)c2ccc(-c3ccncc3C)cc2)c(O)c1N(CC)c1cc(C)cc(C)c1 [Example 133, 6-butyl-5-((3,5-dimethylphenyl)(ethyl)amino)-3-((4-(3-methylpyridin-4-yl)phenyl)sulfonyl)pyridine-2,4-diol] | 0.01 to 10 | 
13 | CCCCc1nc(O)c(S(=O)(=O)c2ccc(Br)cc2)c(O)c1N(CC)c1cc(C)cc(C)c1 [Example 134, 3-((4-bromophenyl)sulfonyl)-6-butyl-5-((3,5-dimethylphenyl)(ethyl)amino)pyridine-2,4-diol] | 10 to 100 | 
14 | CCCCc1nc(O)c(S(=O)(=O)c2ccc(-c3ccc(F)nc3C)cc2)c(O)c1N(CC)c1cc(C)cc(C)c1 [Example 135, 6-butyl-5-((3,5-dimethylphenyl)(ethyl)amino)-3-((4-(6-fluoro-2-methylpyridin-3-yl)phenyl)sulfonyl)pyridine-2,4-diol] | 0.01 to 10 | 
15 | CCCCc1nc(O)c(S(=O)(=O)c2ccc(-c3ccnc(F)c3C)cc2)c(O)c1N(CC)c1cc(C)cc(C)c1 [Example 136, 6-butyl-5-((3,5-dimethylphenyl)(ethyl)amino)-3-((4-(2-fluoro-3-methylpyridin-4-yl)phenyl)sulfonyl)pyridine-2,4-diol] | 0.01 to 10 | 
16 | CCCCc1nc(O)c(S(=O)(=O)c2ccc(-c3ccccc3C(=O)NC)cc2)c(O)c1N(C)c1cccc(C#N)c1 [Example 137, 4′-((6-butyl-5-((3-cyanophenyl)(methyl)amino)-2,4-dihydroxypyridin-3-yl)sulfonyl)-N-methyl-[1,1′-biphenyl]-2-carboxamide] | 0.01 to 10 | 
17 | CCCCc1nc(O)c(S(=O)(=O)c2ccc(-c3ccccc3C(N)=O)cc2)c(O)c1N(C)c1cccc(C#N)c1 [Example 138, 4′-((6-butyl-5-((3-cyanophenyl)(methyl)amino)-2,4-dihydroxypyridin-3-yl)sulfonyl)-[1,1′-biphenyl]-2-carboxamide] | 0.01 to 10 | 
18 | CCCCc1nc(O)c(S(=O)(=O)c2ccc(-c3ccccc3C(=O)N(C)C)cc2)c(O)c1N(C)c1cccc(C#N)c1 [Example 139, 4′-((6-butyl-5-((3-cyanophenyl)(methyl)amino)-2,4-dihydroxypyridin-3-yl)sulfonyl)-N,N-dimethyl-[1,1′-biphenyl]-2-carboxamide] | 0.01 to 10 | 
19 | CCCCc1nc(O)c(S(=O)(=O)c2ccc(-c3ccccc3C(=O)N(C)C)cc2)c(O)c1N(CC)c1cc(C)cc(C)c1 [Example 140, 4′-((6-butyl-5-((3,5-dimethylphenyl)(ethyl)amino)-2,4-dihydroxypyridin-3-yl)sulfonyl)-N,N-dimethyl-[1,1′-biphenyl]-2-carboxamide] | 0.01 to 10 | 
20 | CCN(c1ccccc1)c1c(-c2cccc(C)c2)nc(O)c(S(=O)(=O)c2ccc(-c3ccccc3C(=O)N(C)C)cc2)c1O [Example 141, 4′-((5-(ethyl(phenyl)amino)-2,4-dihydroxy-6-(m-tolyl)pyridin-3-yl)sulfonyl)-N,N-dimethyl-[1,1′-biphenyl]-2-carboxamide] | 0.01 to 10 | 
21 | CCCCc1nc(O)c(S(=O)(=O)c2ccc(-c3ccccc3C(=O)N(C)C)cc2)c(O)c1N1CCCOc2ccccc21 [Example 142, 4′-((6-butyl-5-(3,4-dihydrobenzo[b][1,4]oxazepin-5(2H)-yl)-2,4-dihydroxypyridin-3-yl)sulfonyl)-N,N-dimethyl-[1,1′-biphenyl]-2-carboxamide] | 10 to 100 | 
22 | CCCCc1nc(O)c(S(=O)(=O)c2ccc(-c3ccccc3C(N)=O)cc2)c(O)c1N(CC)c1cc(C)cc(C)c1 [Example 143, 4′-((6-butyl-5-((3,5-dimethylphenyl)(ethyl)amino)-2,4-dihydroxypyridin-3-yl)sulfonyl)-[1,1′-biphenyl]-2-carboxamide] | 0.01 to 10 | 
23 | CCN(c1ccccc1)c1c(-c2cccc(C)c2)nc(O)c(S(=O)(=O)c2ccc(-c3ccccc3C(N)=O)cc2)c1O [Example 144, 4′-((5-(ethyl(phenyl)amino)-2,4-dihydroxy-6-(m-tolyl)pyridin-3-yl)sulfonyl)-[1,1′-biphenyl]-2-carboxamide] | 0.01 to 10 | 
24 | CCN(c1ccccc1)c1c(-c2cccc(C)c2)nc(O)c(S(=O)(=O)c2ccc(-c3ccccc3C(=O)NC)cc2)c1O [Example 145, 4′-((5-(ethyl(phenyl)amino)-2,4-dihydroxy-6-(m-tolyl)pyridin-3-yl)sulfonyl)-N-methyl-[1,1′-biphenyl]-2-carboxamide] | 0.01 to 10 | 
25 | CCCCc1nc(O)c(S(=O)(=O)c2ccc(-c3ccccc3C(=O)NC)cc2)c(O)c1N1CCCOc2ccccc21 [Example 146, 4′-((6-butyl-5-(3,4-dihydrobenzo[b][1,4]oxazepin-5(2H)-yl)-2,4-dihydroxypyridin-3-yl)sulfonyl)-N-methyl-[1,1′-biphenyl]-2-carboxamide] | 0.01 to 10 | 
26 | CCN(c1ccccc1)c1c(CC2CC2)nc(O)c(S(=O)(=O)c2ccc(-c3ccccc3C(N)=O)cc2)c1O [Example 147, 4′-((6-(cyclopropylmethyl)-5-(ethyl(phenyl)amino)-2,4-dihydroxypyridin-3-yl)sulfonyl)-[1,1′-biphenyl]-2-carboxamide] | 0.01 to 10 | 
27 | CCN(c1ccccc1)c1c(-c2ccn(C)n2)nc(O)c(S(=O)(=O)c2ccc(-c3ccccc3C(N)=O)cc2)c1O [Example 148, 4′-((5-(ethyl(phenyl)amino)-2,4-dihydroxy-6-(1-methyl-1H-pyrazol-3-yl)pyridin-3-yl)sulfonyl)-[1,1′-biphenyl]-2-carboxamide] | 0.01 to 10 | 
28 | CCN(c1ccccc1)c1c(-c2cnn(C)c2)nc(O)c(S(=O)(=O)c2ccc(-c3ccnc(F)c3C)cc2)c1O [Example 149, 5-(ethyl(phenyl)amino)-3-((4-(2-fluoro-3-methylpyridin-4-yl)phenyl)sulfonyl)-6-(1-methyl-1H-pyrazol-4-yl)pyridine-2,4-diol] | 0.01 to 10 | 
